Experimental data reported in US10173991B2, “Sulfone amide linked benzothiazole inhibitors of endothelial lipase” (BRISTOL-MYERS SQUIBB COMPANY, priority 2014, dated 2019).

target: Endothelial lipase (EL) (Homo sapiens (Human), UniProt Q9Y5X9); assay: Endothelial lipase (EL) enzymatic assay with fluorescent substrate A10070 in DMPG vesicles; type: biochemical; details: not given
Experimental: Endothelial lipase (EL) and hepatic lipase (HL) activities were measured using a fluorescent substrate, A10070, (Invitrogen, CA) doped into an artificial vesicle containing DMPG (Avanti Polar Lipids) as the excipient. Vesicles were prepared by combining 571 μL of 29 mM DMPG in a 1:1 mixture of MeOH and CHCl3 with 2000 μL of 1 mM A10070 in a 1:1 mixture of MeOH and CHCl3. The mixture was dried under nitrogen in multiple vials then resuspended in 20 mL total volume of 50 mM HEPES pH 8.0 buffer containing 50 mM NaCl and 0.2 mM EDTA. The sample was allowed to sit at room temperature for 15 min and then was sonicated 3×4 mins on ice with a Branson Sonicator using duty cycle 1. This preparation provides vesicles with a mole fraction of 0.11 for the FRET substrate.
The enzymatic assay was measured using 384-well white Optiplates. Each well contained 20 μL of assay buffer (50 mM HEPES pH 8.0, 50 mM NaCl and 1 mM CaCl2) and 0.25 μL of a DMSO solution containing a compound of interest. EL or HL (10 μL) was added and allowed to incubate with the compound for 30 min at 37° C. The source of EL was conditioned media obtained from HT-1080 cells that were transformed using RAGE technology (Athersys) to overexpress endogenous EL, and HL was partially purified from conditioned media obtained from COS cells overexpressing HL. The reaction was started by the addition of 10 μL of a 1:10 dilution of vesicles. The final total reaction volume was […]. The reaction rates were measured on a Gemini plate reader with an excitation wavelength of 490 nm and an emission wavelength of 530 nm. Readings were taken over a period of 60 minutes, and the slope between 300 and 900 secs of the readout was used to calculate the rate of the reaction.

Chain of Endothelial lipase (EL) (Q9Y5X9 21-500): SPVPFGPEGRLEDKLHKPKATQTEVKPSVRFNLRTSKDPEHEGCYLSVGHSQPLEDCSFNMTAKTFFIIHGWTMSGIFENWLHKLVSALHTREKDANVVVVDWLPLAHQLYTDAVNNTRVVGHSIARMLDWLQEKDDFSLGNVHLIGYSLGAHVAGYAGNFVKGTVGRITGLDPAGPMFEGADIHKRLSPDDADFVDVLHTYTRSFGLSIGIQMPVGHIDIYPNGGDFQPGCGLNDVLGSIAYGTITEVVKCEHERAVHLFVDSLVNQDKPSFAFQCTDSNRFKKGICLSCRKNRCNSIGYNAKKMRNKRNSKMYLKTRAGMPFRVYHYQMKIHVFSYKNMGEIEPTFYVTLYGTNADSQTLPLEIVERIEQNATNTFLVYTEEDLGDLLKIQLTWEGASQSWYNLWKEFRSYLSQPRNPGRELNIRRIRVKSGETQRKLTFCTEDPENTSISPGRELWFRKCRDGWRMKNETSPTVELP

Row | IC50 | Structure (SMILES)
1 | 6 nM | COCCS(=O)(=O)C(C(=O)NCC(=O)NC1CC1)c1nc2cc(F)c(-c3ccc(-c4nn[nH]n4)cc3)cc2s1 (stereo not shown) [Example 146, N-[(cyclopropyl-carbamoyl)methyl]-2-{5-fluoro-6-[4-(2H-1,2,3,4-tetrazol-5-yl)phenyl]-1,3-benzothiazol-2-yl}-2-(2-methoxyethane-sulfonyl)acetamide]
2 | 7 nM | COC(=O)N(C)c1cccc(-c2ccc3nc(C(C(=O)NCC(=O)NC4CC4)S(=O)(=O)CCC(F)(F)F)sc3c2)c1 (stereo not shown) [Example 546, methyl N-{3-[2-({[(cyclopropyl-carbamoyl)methyl]carbamoyl}(3,3,3-trifluoropropane-sulfonyl)methyl)-1,3-benzothiazol-6-yl]phenyl}-N-methylcarbamate]
3 | 8 nM | CN(C)S(=O)(=O)C(C(=O)NCC(=O)NC1CC1)c1nc2c(F)cc(-c3ccccc3)cc2s1 (stereo not shown) [Example 501, N-[(cyclopropyl-carbamoyl)methyl]-2-(dimethyl-sulfamoyl)-2-(4-fluoro-6-phenyl-1,3-benzothiazol-2-yl)acetamide]
4 | 137 nM | Cc1ncc(-c2ccc3sc(C(C(=O)NCC(=O)NC4CC4)S(C)(=O)=O)nc3c2F)cn1 (stereo not shown) [Example 126, N-[(cyclopropyl-carbamoyl)methyl]-2-[4-fluoro-5-(2-methylpyrimidin-5-yl)-1,3-benzothiazol-2-yl]-2-methanesulfonyl-acetamide]
5 | 15 nM | COCCNC(=O)c1ccc(-c2ccc3sc(C(C(=O)NCC(=O)NC4CC4)S(=O)(=O)CCOC)nc3c2)cc1 (stereo not shown) [Example 334, 4-[2-({[(cyclopropyl-carbamoyl)methyl]carbamoyl}(2-methoxyethane-sulfonyl)methyl)-1,3-benzothiazol-5-yl]-N-(2-methoxyethyl) benzamide]
6 | 8 nM | COCCS(=O)(=O)C(C(=O)NCC(=O)NC1CC1)c1nc2ccc(-c3ccc(NC(=O)OC)cc3)cc2s1 (stereo not shown) [Example 100, methyl N-{4-[2-({[(cyclopropyl-carbamoyl)methyl]carbamoyl}(2-methoxyethane-sulfonyl)methyl)-1,3-benzothiazol-6-yl]phenyl} carbamate]
7 | 91 nM | COCCNC(=O)c1ccc(-c2ccc3nc(C(C(=O)NCC(=O)NC4CC4)S(=O)(=O)Cc4ccc(F)cc4)sc3c2)cc1 (stereo not shown) [Example 226, 4-[2-({[(cyclopropyl-carbamoyl)methyl]carbamoyl}(4-fluorophenyl)methanesulfonyl-methyl)-1,3-benzothiazol-6-yl]-N-(2-methoxyethyl) benzamide]
8 | 47 nM | CS(=O)(=O)C(C(=O)NCC(=O)NC1CC1)c1nc2ccc(-c3ccc(F)nc3)cc2s1 (stereo not shown) [Example 57, N-[(cyclopropyl-carbamoyl)methyl]-2-[6-(6-fluoropyridin-3-yl)-1,3-benzothiazol-2-yl]-2-methanesulfonyl-acetamide]
9 | 88 nM | CC(C)S(=O)(=O)C(C(=O)NCC(=O)NC1CC1)c1nc2cc(C(F)(F)F)c(-c3ccnn3C)cc2s1 (stereo not shown) [Example 180, N-[(cyclopropyl-carbamoyl)methyl]-2-[6-(1-methyl-1H-pyrazol-5-yl)-5-(trifluoromethyl)-1,3-benzothiazol-2-yl]-2-(propane-2-sulfonyl) acetamide]
10 | 6 nM | COC(=O)Nc1cccc(-c2cc(F)c3nc(C(C(=O)NCC(=O)NC4CC4)S(=O)(=O)C(C)C)sc3c2)c1 (stereo not shown) [Example 280, methyl N-{3-[2-({[(cyclopropyl-carbamoyl)methyl]carbamoyl} (propane-2-sulfonyl)methyl)-4-fluoro-1,3-benzothiazol-6-yl]phenyl}carbamate]
11 | 18 nM | Cn1nccc1-c1ccc2nc(C(C(=O)NCC(=O)NC3CC3)S(=O)(=O)c3ccc(F)cc3)sc2c1 (stereo not shown) [Example 459, N-[(cyclopropyl-carbamoyl)methyl]-2-(4-fluorobenzene-sulfonyl)-2-[6-(1-methyl-1H-pyrazol-5-yl)-1,3-benzothiazol-2-yl]acetamide]
12 | 2 nM | COCCS(=O)(=O)C(C(=O)NCC(=O)NC1CC1)c1nc2cc(C)c(-c3ccc4c(cnn4C)c3)cc2s1 (stereo not shown) [Example 148, N-[(cyclopropyl-carbamoyl)methyl]-2-(2-methoxyethane-sulfonyl)-2-[5-methyl-6-(1-methyl-1H-indazol-5-yl)-1,3-benzothiazol-2-yl] acetamide]
13 | 118 nM | CCOc1ccc(-c2ccc3nc(C(C(=O)NCC(=O)NC4CC4)S(=O)(=O)CCOC)sc3c2)cn1 (stereo not shown) [Example 299, N-[(cyclopropyl-carbamoyl)methyl]-2-[6-(6-ethoxypyridin-3-yl)-1,3-benzothiazol-2-yl]-2-(2-methoxyethane-sulfonyl)acetamide]
14 | 2 nM | N#CCS(=O)(=O)C(C(=O)NCC(=O)NC1CC1)c1nc2cc(F)c(-c3ccc(NC(=O)OCc4ccccc4)cc3)cc2s1 (stereo not shown) [Example 47, benzyl N-(4-{2-[(cyanomethane-sulfonyl) ({[(cyclopropyl-carbamoyl)methyl]carbamoyl}methyl]-5-fluoro-1,3-benzothiazol-6-yl}phenyl) carbamate]
15 | 13 nM | CC(=O)NCc1ccc(-c2ccc3sc(C(C(=O)NCC(=O)NC4CC4)S(=O)(=O)c4ccccc4)nc3c2)cc1 (stereo not shown) [Example 436, 2-(benzenesulfonyl)-N-[(cyclopropyl-carbamoyl)methyl]-2-{5-[4-(acetamidomethyl)phenyl]-1,3-benzothiazol-2-yl} acetamide]
16 | 24 nM | CS(=O)(=O)C(C(=O)NCC(=O)NC1CC1)c1nc2cc(F)c(-c3ccc(C#N)nc3)cc2s1 (stereo not shown) [Example 199, 2-[6-(6-cyanopyridin-3-yl)-5-fluoro-1,3-benzothiazol-2-yl]-N-[(cyclopropyl-carbamoyl)methyl]-2-methanesulfonyl-acetamide]
17 | 40 nM | COCCS(=O)(=O)C(C(=O)NCC(=O)NC1CC1)c1nc2cc(-c3ccncc3)ccc2s1 (stereo not shown) [Example 79, N-[(cyclopropyl-carbamoyl)methyl]-2-(2-methoxyethane-sulfonyl)-2-[5-(pyridin-4-yl)-1,3-benzothiazol-2-yl]acetamide]
18 | 8 nM | COCCS(=O)(=O)C(C(=O)NCC(=O)NC1CC1)c1nc2cc(F)c(-c3ccc(NC(=O)OC)cc3C)cc2s1 (stereo not shown) [Example 35, methyl N-{4-[2-({[(cyclopropyl-carbamoyl)methyl]carbamoyl}(2-methoxyethane-sulfonyl)methyl)-5-fluoro-1,3-benzothiazol-6-yl]-3-methylphenyl} carbamate]
19 | 82 nM | CC(C)S(=O)(=O)C(C(=O)NCC(=O)NC1CC1)c1nc2cc(C(F)(F)F)c(Br)cc2s1 (stereo not shown) [Example 179, 2-[6-bromo-5-(trifluoromethyl)-1,3-benzothiazol-2-yl]-N-[(cyclopropyl-carbamoyl)methyl]-2-(propane-2-sulfonyl) acetamide]
20 | 20 nM | O=C(CNC(=O)C(c1nc2ccc(-c3ccc(F)nc3)cc2s1)S(=O)(=O)Cc1ccc(OC(F)(F)F)cc1)NC1CC1 (stereo not shown) [Example 513, N-[(cyclopropyl-carbamoyl)methyl]-2-[6-(6-fluoropyridin-3-yl)-1,3-benzothiazol-2-yl]-2-{[4-(trifluoromethoxy)phenyl]methanesulfonyl} acetamide]
21 | 1 nM | COCCS(=O)(=O)C(C(=O)NCC(=O)NCCOc1ccccc1)c1nc2ccc(-c3ccc(F)nc3)cc2s1 (stereo not shown) [Example 380, 2-[6-(6-fluoropyridin-3-yl)-1,3-benzothiazol-2-yl]-2-(2-methoxyethane-sulfonyl)-N-{[(2-phenoxyethyl)carbamoyl]methyl} acetamide]
22 | 24 nM | O=C(CNC(=O)C(c1nc2ccc(-c3ccc(F)nc3)cc2s1)S(=O)(=O)c1ccc(F)cc1)NC1CC1 (stereo not shown) [Example 457, N-[(cyclopropyl-carbamoyl)methyl]-2-(4-fluorobenzene-sulfonyl)-2-[6-(6-fluoropyridin-3-yl)-1,3-benzothiazol-2-yl]acetamide]
23 | 2 nM | COCCOC(=O)Nc1ccc(-c2cc3sc(C(C(=O)NCC(=O)NC4CC4)S(=O)(=O)CCC(F)(F)F)nc3cc2F)cc1 (stereo not shown) [Example 534, 2-methoxyethyl N-{4-[2-({[(cyclopropyl-carbamoyl)methyl]carbamoyl}(3,3,3-trifluoropropane-sulfonyl)methyl)-5-fluoro-1,3-benzothiazol-6-yl]phenyl} carbamate]

same assay, conditions: EL from conditioned media of HT-1080 cells; 30 min preincubation at 37° C.

Row | IC50 | Structure (SMILES)
24 | 4 nM | COCCS(=O)(=O)C(C(=O)NCC(=O)NC1CC1)c1nc2ccc(-c3ccc(F)nc3)cc2s1 (stereo not shown) [Example 376, N-[(Cyclopropylcarbamoyl)methyl]-2-[6-(6-fluoropyridin-3-yl)-1,3-benzothiazol-2-yl]-2-(2-methoxyethanesulfonyl)acetamide]
25 | 268 nM | O=C(CNC(=O)C(c1nc2cc(F)c(-c3cccn(Cc4ccccc4)c3=O)cc2s1)S(=O)(=O)CCC(F)(F)F)NC1CC1 (stereo not shown) [Example 591, 2-[6-(1-Benzyl-2-oxo-1,2-dihydropyridin-3-yl)-5-fluoro-1,3-benzothiazol-2-yl]-N-[(cyclopropylcarbamoyl)methyl]-2-(3,3,3-trifluoropropanesulfonyl)acetamide]
